Results reported in the supplement of paper PMC10307832.

How the values were obtained:
Assay in all cases: relative viability (nuclei count vs DMSO), 5 days (fraction); higher = more cells survive
[1] = compound: C1=CC2=NC=CN=C2C=C1/C=C/3\C(=O)NC(=O)S3 + CC(=O)c1c(C)c2cnc(Nc3ccc(N4CCNCC4)cn3)nc2n(C2CCCC2)c1=O [Palbociclib] (partner 0.5 µM)
Method in brief: (§1)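 Five library-drug doses in √10 steps were combined with a fixed anchor-drug dose, or a single drug was given alone, by pin tool to lung cancer cell lines in 1536-well plates the day after seeding. Nuclei were stained and counted after 5 days. Relative viability is the nuclei count in treated wells over that in vehicle wells, taken as the median of duplicate plates.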

BGJ398 + Crizotinib = compound: CCN1CCN(c2ccc(Nc3cc(N(C)C(=O)Nc4c(Cl)c(OC)cc(OC)c4Cl)ncn3)cc2)CC1 [BGJ398] + C[C@@H](Oc1cc(-c2cnn(C3CCNCC3)c2)cnc1N)c1c(Cl)ccc(F)c1Cl [Crizotinib] (partner 1 µM)
Method in brief: as §1

BGJ398 + Decitabine = compound: CCN1CCN(c2ccc(Nc3cc(N(C)C(=O)Nc4c(Cl)c(OC)cc(OC)c4Cl)ncn3)cc2)CC1 [BGJ398] + Nc1ncn([C@H]2C[C@H](O)[C@@H](CO)O2)c(=O)n1 [Decitabine] (partner 2 µM)
Method in brief: as §1

[2] = compound: C1=CC2=NC=CN=C2C=C1/C=C/3\C(=O)NC(=O)S3 + NC(=O)Nc1cc(-c2cccc(F)c2)sc1C(=O)N[C@H]1CCCNC1 [AZD7762] (partner 0.2 µM)
Method in brief: as §1

RERF-LC-KJ gave a relative viability ([1]; first compound 0.02 µM) of 1.04, a relative viability ([1]; first compound 0.06325 µM) of 1.12 and a relative viability ([1]; first compound 0.2 µM) of 1.05. For the same cell line, the relative viability ([1]; first compound 0.6325 µM) was 0.994, the relative viability ([1]; first compound 2 µM) was 1.15 and the relative viability (BGJ398 + Crizotinib; first compound 0.01 µM) was 0.807. For the same cell line, the relative viability (BGJ398 + Crizotinib; first compound 0.03162 µM) was 0.928, the relative viability (BGJ398 + Crizotinib; first compound 0.1 µM) was 0.852 and the relative viability (BGJ398 + Crizotinib; first compound 0.3162 µM) was 0.871. For the same cell line, the relative viability (BGJ398 + Crizotinib; first compound 1 µM) was 0.788, the relative viability (BGJ398 + Decitabine; first compound 0.01 µM) was 0.66 and the relative viability (BGJ398 + Decitabine; first compound 0.03162 µM) was 0.79. The relative viability (BGJ398 + Decitabine; first compound 0.1 µM) was 0.765, the relative viability (BGJ398 + Decitabine; first compound 0.3162 µM) was 0.739 and the relative viability (BGJ398 + Decitabine; first compound 1 µM) was 0.642. The relative viability ([2]; first compound 0.02 µM) was 0.707, the relative viability ([2]; first compound 0.06325 µM) was 0.894 and the relative viability ([2]; first compound 0.2 µM) was 0.962. The relative viability ([2]; first compound 0.6325 µM) was 0.943 and the relative viability ([2]; first compound 2 µM) was 0.624.
NCI-H1650 was tested, and the relative viability ([1]; first compound 0.02 µM) was 0.218, the relative viability ([1]; first compound 0.06325 µM) was 0.43 and the relative viability ([1]; first compound 0.2 µM) was 0.37. For the same cell line, the relative viability ([1]; first compound 0.6325 µM) was 0.347, the relative viability ([1]; first compound 2 µM) was 0.343 and the relative viability (BGJ398 + Crizotinib; first compound 0.01 µM) was 0.955. It also gave a relative viability (BGJ398 + Crizotinib; first compound 0.03162 µM) of 1.01, a relative viability (BGJ398 + Crizotinib; first compound 0.1 µM) of 0.862 and a relative viability (BGJ398 + Crizotinib; first compound 0.3162 µM) of 0.879. The relative viability (BGJ398 + Crizotinib; first compound 1 µM) was 0.937, the relative viability (BGJ398 + Decitabine; first compound 0.01 µM) was 0.451 and the relative viability (BGJ398 + Decitabine; first compound 0.03162 µM) was 0.424. For the same cell line, the relative viability (BGJ398 + Decitabine; first compound 0.1 µM) was 0.411, the relative viability (BGJ398 + Decitabine; first compound 0.3162 µM) was 0.415 and the relative viability (BGJ398 + Decitabine; first compound 1 µM) was 0.361.
Work on NCI-H1299 yielded a relative viability (BGJ398 + Crizotinib; first compound 0.01 µM) of 0.94, a relative viability (BGJ398 + Crizotinib; first compound 0.03162 µM) of 0.864 and a relative viability (BGJ398 + Crizotinib; first compound 0.1 µM) of 0.951. The relative viability (BGJ398 + Crizotinib; first compound 0.3162 µM) was 0.969 and the relative viability (BGJ398 + Crizotinib; first compound 1 µM) was 0.97.
For EBC-1, the relative viability (BGJ398 + Crizotinib; first compound 0.01 µM) was 0.198, the relative viability (BGJ398 + Crizotinib; first compound 0.03162 µM) was 0.201 and the relative viability (BGJ398 + Crizotinib; first compound 0.1 µM) was 0.17. It also gave a relative viability (BGJ398 + Crizotinib; first compound 0.3162 µM) of 0.199 and a relative viability (BGJ398 + Crizotinib; first compound 1 µM) of 0.197.
For NCI-H2342, the relative viability ([1]; first compound 0.02 µM) was 0.508, the relative viability ([1]; first compound 0.06325 µM) was 0.524 and the relative viability ([1]; first compound 0.2 µM) was 0.547. For the same cell line, the relative viability ([1]; first compound 0.6325 µM) was 0.484, the relative viability ([1]; first compound 2 µM) was 0.498 and the relative viability (BGJ398 + Decitabine; first compound 0.01 µM) was 0.725. For the same cell line, the relative viability (BGJ398 + Decitabine; first compound 0.03162 µM) was 0.808, the relative viability (BGJ398 + Decitabine; first compound 0.1 µM) was 0.714 and the relative viability (BGJ398 + Decitabine; first compound 0.3162 µM) was 0.758. For the same cell line, the relative viability (BGJ398 + Decitabine; first compound 1 µM) was 0.815, the relative viability ([2]; first compound 0.02 µM) was 0.377 and the relative viability ([2]; first compound 0.06325 µM) was 0.47. For the same cell line, the relative viability ([2]; first compound 0.2 µM) was 0.453, the relative viability ([2]; first compound 0.6325 µM) was 0.397 and the relative viability ([2]; first compound 2 µM) was 0.335.
Work on COR-L23 yielded a relative viability ([1]; first compound 0.02 µM) of 0.276, a relative viability ([1]; first compound 0.06325 µM) of 0.281 and a relative viability ([1]; first compound 0.2 µM) of 0.295. It also gave a relative viability ([1]; first compound 0.6325 µM) of 0.3, a relative viability ([1]; first compound 2 µM) of 0.235 and a relative viability (BGJ398 + Crizotinib; first compound 0.01 µM) of 0.588. It also gave a relative viability (BGJ398 + Crizotinib; first compound 0.03162 µM) of 0.826, a relative viability (BGJ398 + Crizotinib; first compound 0.1 µM) of 0.598 and a relative viability (BGJ398 + Crizotinib; first compound 0.3162 µM) of 0.762. For the same cell line, the relative viability (BGJ398 + Crizotinib; first compound 1 µM) was 0.653, the relative viability (BGJ398 + Decitabine; first compound 0.01 µM) was 0.36 and the relative viability (BGJ398 + Decitabine; first compound 0.03162 µM) was 0.438. For the same cell line, the relative viability (BGJ398 + Decitabine; first compound 0.1 µM) was 0.507, the relative viability (BGJ398 + Decitabine; first compound 0.3162 µM) was 0.42 and the relative viability (BGJ398 + Decitabine; first compound 1 µM) was 0.365.
In the case of COR-L 105, the relative viability ([1]; first compound 0.02 µM) is reported as 0.429, the relative viability ([1]; first compound 0.06325 µM) is reported as 0.423 and the relative viability ([1]; first compound 0.2 µM) is reported as 0.387. It also gave a relative viability ([1]; first compound 0.6325 µM) of 0.349, a relative viability ([1]; first compound 2 µM) of 0.412 and a relative viability (BGJ398 + Crizotinib; first compound 0.01 µM) of 0.737. The relative viability (BGJ398 + Crizotinib; first compound 0.03162 µM) was 0.844, the relative viability (BGJ398 + Crizotinib; first compound 0.1 µM) was 0.879 and the relative viability (BGJ398 + Crizotinib; first compound 0.3162 µM) was 0.86. It also gave a relative viability (BGJ398 + Crizotinib; first compound 1 µM) of 0.819, a relative viability (BGJ398 + Decitabine; first compound 0.01 µM) of 0.636 and a relative viability (BGJ398 + Decitabine; first compound 0.03162 µM) of 0.587. It also gave a relative viability (BGJ398 + Decitabine; first compound 0.1 µM) of 0.637, a relative viability (BGJ398 + Decitabine; first compound 0.3162 µM) of 0.601 and a relative viability (BGJ398 + Decitabine; first compound 1 µM) of 0.69.
NCI-H596 gave a relative viability (BGJ398 + Crizotinib; first compound 0.01 µM) of 0.935, a relative viability (BGJ398 + Crizotinib; first compound 0.03162 µM) of 0.843 and a relative viability (BGJ398 + Crizotinib; first compound 0.1 µM) of 0.883. For the same cell line, the relative viability (BGJ398 + Crizotinib; first compound 0.3162 µM) was 0.944, the relative viability (BGJ398 + Crizotinib; first compound 1 µM) was 0.794 and the relative viability (BGJ398 + Decitabine; first compound 0.01 µM) was 1.15. It also gave a relative viability (BGJ398 + Decitabine; first compound 0.03162 µM) of 0.885, a relative viability (BGJ398 + Decitabine; first compound 0.1 µM) of 0.977 and a relative viability (BGJ398 + Decitabine; first compound 0.3162 µM) of 0.991. The relative viability (BGJ398 + Decitabine; first compound 1 µM) was 0.778, the relative viability ([2]; first compound 0.02 µM) was 1.15 and the relative viability ([2]; first compound 0.06325 µM) was 1.14. It also gave a relative viability ([2]; first compound 0.2 µM) of 1.19, a relative viability ([2]; first compound 0.6325 µM) of 0.907 and a relative viability ([2]; first compound 2 µM) of 0.956.
Cell Line NCI-H2023 has a relative viability ([1]; first compound 0.02 µM) of 0.405, a relative viability ([1]; first compound 0.06325 µM) of 0.408 and a relative viability ([1]; first compound 0.2 µM) of 0.314. It also gave a relative viability ([1]; first compound 0.6325 µM) of 0.337, a relative viability ([1]; first compound 2 µM) of 0.27 and a relative viability (BGJ398 + Crizotinib; first compound 0.01 µM) of 0.618. It also gave a relative viability (BGJ398 + Crizotinib; first compound 0.03162 µM) of 0.62, a relative viability (BGJ398 + Crizotinib; first compound 0.1 µM) of 0.605 and a relative viability (BGJ398 + Crizotinib; first compound 0.3162 µM) of 0.747. The relative viability (BGJ398 + Crizotinib; first compound 1 µM) was 0.655, the relative viability (BGJ398 + Decitabine; first compound 0.01 µM) was 0.197 and the relative viability (BGJ398 + Decitabine; first compound 0.03162 µM) was 0.226. The relative viability (BGJ398 + Decitabine; first compound 0.1 µM) was 0.23, the relative viability (BGJ398 + Decitabine; first compound 0.3162 µM) was 0.218 and the relative viability (BGJ398 + Decitabine; first compound 1 µM) was 0.211.
